Experimental data from publication PMC3538687, “Detection of Cyclic Diguanylate G-Octaplex Assembly and Interaction with Proteins” (PLoS ONE, 2013).

Legend:
[1] = molecular target: T1, HIV-1 reverse transcriptase (HIV RT) (HIV-1 M:B_HXB2R, UniProt P04585); assay: DRaCALA direct binding, protein titration; settings: labelled compound (32P), 500 nM; K+ buffer pH 7.9, room temperature; concentration given as cdiGMP monomers; octaplex only, cdiGMP M/D does not bind; primer-template site
T1 construct: gene gag-pol; purchased from Worthington; mature RT cut from Gag-Pol polyprotein; with p51 RT

[2] = molecular target: T1, HIV-1 reverse transcriptase (HIV RT); assay: primer extension, […] min; assay type: biochemical; settings: 80 mM KCl, 6 mM MgCl2, 100 µM dNTPs, pH 8; G8 prepared in K+; concentration given as cdiGMP monomers; octaplex only, M/D shows no inhibition

Substance: cdiGMP G8
- Kd [1]: 0.7 ± 0.1 µM
- IC50 [2]: 28 ± 7 µM
